Reference: PubChem BioAssay (NCI)
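48-hour exposure; five concentrations; linearly interpolated endpoints. TGI denotes the concentration required for complete inhibition of growth.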

Legend:
Experiment in all cases: NCI-60 cell line screen, 48 h
786-0 renal = tested on: 786-0 renal
A498 renal = tested on: A498 renal
A549 NSCLC = tested on: A549 NSCLC
ACHN renal = tested on: ACHN renal
BT-549 breast = tested on: BT-549 breast
CAKI-1 renal = tested on: CAKI-1 renal
CCRF-CEM leukemia = tested on: CCRF-CEM leukemia
COLO 205 colon = tested on: COLO 205 colon
DU-145 prostate = tested on: DU-145 prostate
EKVX NSCLC = tested on: EKVX NSCLC
HCC-2998 colon = tested on: HCC-2998 colon
HCT-116 colon = tested on: HCT-116 colon
HCT-15 colon = tested on: HCT-15 colon
HL-60(TB) leukemia = tested on: HL-60(TB) leukemia
HOP-62 NSCLC = tested on: HOP-62 NSCLC
HOP-92 NSCLC = tested on: HOP-92 NSCLC
HS 578T breast = tested on: HS 578T breast
HT29 colon = tested on: HT29 colon
IGROV1 ovarian = tested on: IGROV1 ovarian
K-562 leukemia = tested on: K-562 leukemia
KM12 colon = tested on: KM12 colon
LOX IMVI melanoma = tested on: LOX IMVI melanoma
M14 melanoma = tested on: M14 melanoma
MCF7 breast = tested on: MCF7 breast
MDA-MB-231 breast = tested on: MDA-MB-231 breast
MDA-MB-435 = tested on: MDA-MB-435
MDA-N = tested on: MDA-N
MOLT-4 leukemia = tested on: MOLT-4 leukemia
NCI-H226 lung = tested on: NCI-H226 lung
NCI-H23 lung = tested on: NCI-H23 lung
NCI-H460 lung = tested on: NCI-H460 lung
NCI-H522 lung = tested on: NCI-H522 lung
NCI/ADR-RES ovarian = tested on: NCI/ADR-RES ovarian
OVCAR-3 ovarian = tested on: OVCAR-3 ovarian
OVCAR-4 ovarian = tested on: OVCAR-4 ovarian
OVCAR-5 ovarian = tested on: OVCAR-5 ovarian
OVCAR-8 ovarian = tested on: OVCAR-8 ovarian
PC-3 prostate = tested on: PC-3 prostate
RPMI-8226 leukemia = tested on: RPMI-8226 leukemia
RXF 393 renal = tested on: RXF 393 renal
SF-268 CNS = tested on: SF-268 CNS
SF-295 CNS = tested on: SF-295 CNS
SF-539 CNS = tested on: SF-539 CNS
SK-MEL-2 melanoma = tested on: SK-MEL-2 melanoma
SK-MEL-28 melanoma = tested on: SK-MEL-28 melanoma
SK-MEL-5 melanoma = tested on: SK-MEL-5 melanoma
SK-OV-3 ovarian = tested on: SK-OV-3 ovarian
SN12C renal = tested on: SN12C renal
SNB-19 CNS = tested on: SNB-19 CNS
SNB-75 CNS = tested on: SNB-75 CNS
SR leukemia = tested on: SR leukemia
SW-620 colon = tested on: SW-620 colon
T-47D breast = tested on: T-47D breast
TK-10 renal = tested on: TK-10 renal
U251 CNS = tested on: U251 CNS
UACC-257 melanoma = tested on: UACC-257 melanoma
UACC-62 melanoma = tested on: UACC-62 melanoma
UO-31 renal = tested on: UO-31 renal

SMILES: CC(=O)N(C)C(C(=O)N1CC(C)CC1C(=O)N(C)C1C(=O)NC(CC(C)C)C(=O)N2CC(C)CC2C(=O)NC(CC(C)C)C(=O)N(C)C(C(C)C)C(=O)N2CCCC2C(=O)N(C)C(CC(C)C)C(=O)NCC(=O)OC1C)C(C)C (stereo unspecified)
- TGI (786-0 renal): > 100 µM
- TGI (A498 renal): > 100 µM
- TGI (A549 NSCLC): > 100 µM
- TGI (ACHN renal): > 100 µM
- TGI (BT-549 breast): > 100 µM
- TGI (CAKI-1 renal): > 100 µM
- TGI (CCRF-CEM leukemia): > 100 µM
- TGI (COLO 205 colon): > 100 µM
- TGI (DU-145 prostate): > 100 µM
- TGI (EKVX NSCLC): > 100 µM
- TGI (HCC-2998 colon): > 100 µM
- TGI (HCT-116 colon): > 100 µM
- TGI (HCT-15 colon): > 100 µM
- TGI (HL-60(TB) leukemia): > 100 µM
- TGI (HOP-62 NSCLC): > 100 µM
- TGI (HOP-92 NSCLC): > 100 µM
- TGI (HS 578T breast): > 100 µM
- TGI (HT29 colon): > 100 µM
- TGI (IGROV1 ovarian): > 100 µM
- TGI (K-562 leukemia): > 100 µM
- TGI (KM12 colon): > 100 µM
- TGI (LOX IMVI melanoma): > 100 µM
- TGI (M14 melanoma): > 100 µM
- TGI (MCF7 breast): > 100 µM
- TGI (MDA-MB-231 breast): > 100 µM
- TGI (MDA-MB-435): > 100 µM
- TGI (MDA-N): > 100 µM
- TGI (MOLT-4 leukemia): > 100 µM
- TGI (NCI-H226 lung): > 100 µM
- TGI (NCI-H23 lung): > 100 µM
- TGI (NCI-H460 lung): > 100 µM
- TGI (NCI-H522 lung): > 100 µM
- TGI (NCI/ADR-RES ovarian): > 100 µM
- TGI (OVCAR-3 ovarian): > 100 µM
- TGI (OVCAR-4 ovarian): > 100 µM
- TGI (OVCAR-5 ovarian): > 100 µM
- TGI (OVCAR-8 ovarian): > 100 µM
- TGI (PC-3 prostate): > 100 µM
- TGI (RPMI-8226 leukemia): > 100 µM
- TGI (RXF 393 renal): > 100 µM
- TGI (SF-268 CNS): > 100 µM
- TGI (SF-295 CNS): > 100 µM
- TGI (SF-539 CNS): > 100 µM
- TGI (SK-MEL-2 melanoma): > 100 µM
- TGI (SK-MEL-28 melanoma): > 100 µM
- TGI (SK-MEL-5 melanoma): > 100 µM
- TGI (SK-OV-3 ovarian): > 100 µM
- TGI (SN12C renal): > 100 µM
- TGI (SNB-19 CNS): > 100 µM
- TGI (SNB-75 CNS): > 100 µM
- TGI (SR leukemia): > 100 µM
- TGI (SW-620 colon): > 100 µM
- TGI (T-47D breast): > 100 µM
- TGI (TK-10 renal): > 100 µM
- TGI (U251 CNS): > 100 µM
- TGI (UACC-257 melanoma): > 100 µM
- TGI (UACC-62 melanoma): > 100 µM
- TGI (UO-31 renal): > 100 µM

SMILES: CCOC(=O)c1c(Sc2ccc([N+](=O)[O-])cc2[N+](=O)[O-])nc2c3ccccc3ccn12
- TGI (786-0 renal): > 38.6 µM
- TGI (A498 renal): > 100 µM
- TGI (A549 NSCLC): > 100 µM
- TGI (ACHN renal): > 100 µM
- TGI (BT-549 breast): > 100 µM
- TGI (CAKI-1 renal): > 100 µM
- TGI (CCRF-CEM leukemia): > 100 µM
- TGI (COLO 205 colon): > 100 µM
- TGI (DU-145 prostate): > 100 µM
- TGI (EKVX NSCLC): > 100 µM
- TGI (HCC-2998 colon): > 100 µM
- TGI (HCT-116 colon): > 100 µM
- TGI (HCT-15 colon): > 100 µM
- TGI (HL-60(TB) leukemia): > 100 µM
- TGI (HOP-62 NSCLC): > 59.4 µM
- TGI (HOP-92 NSCLC): 41.3 µM
- TGI (HS 578T breast): > 92.3 µM
- TGI (HT29 colon): > 100 µM
- TGI (IGROV1 ovarian): > 31.6 µM
- TGI (K-562 leukemia): > 100 µM
- TGI (KM12 colon): > 100 µM
- TGI (LOX IMVI melanoma): > 100 µM
- TGI (M14 melanoma): > 100 µM
- TGI (MCF7 breast): > 100 µM
- TGI (MDA-MB-231 breast): > 100 µM
- TGI (MDA-MB-435): > 100 µM
- TGI (MDA-N): > 100 µM
- TGI (MOLT-4 leukemia): > 100 µM
- TGI (NCI-H226 lung): > 100 µM
- TGI (NCI-H23 lung): > 100 µM
- TGI (NCI-H460 lung): > 100 µM
- TGI (NCI-H522 lung): > 100 µM
- TGI (NCI/ADR-RES ovarian): > 100 µM
- TGI (OVCAR-3 ovarian): > 100 µM
- TGI (OVCAR-4 ovarian): > 100 µM
- TGI (OVCAR-5 ovarian): > 100 µM
- TGI (OVCAR-8 ovarian): > 100 µM
- TGI (PC-3 prostate): > 100 µM
- TGI (RPMI-8226 leukemia): > 100 µM
- TGI (RXF 393 renal): > 92.9 µM
- TGI (SF-268 CNS): > 100 µM
- TGI (SF-295 CNS): > 100 µM
- TGI (SF-539 CNS): > 94.8 µM
- TGI (SK-MEL-2 melanoma): > 100 µM
- TGI (SK-MEL-28 melanoma): > 100 µM
- TGI (SK-MEL-5 melanoma): > 100 µM
- TGI (SK-OV-3 ovarian): 69.7 µM
- TGI (SN12C renal): > 100 µM
- TGI (SNB-19 CNS): > 100 µM
- TGI (SNB-75 CNS): > 100 µM
- TGI (SR leukemia): > 100 µM
- TGI (SW-620 colon): > 100 µM
- TGI (T-47D breast): > 100 µM
- TGI (TK-10 renal): > 100 µM
- TGI (U251 CNS): > 100 µM
- TGI (UACC-257 melanoma): > 100 µM
- TGI (UACC-62 melanoma): > 65.9 µM
- TGI (UO-31 renal): > 100 µM
